The source of these data is ChEMBL document CHEMBL1201862, “PubChem BioAssay data set” (2004).

Some test systems named below: HT-29; UACC-257; CAKI-1; UO-31; SR; HCT-15; M14; EKVX; Malme-3M; SK-MEL-2; OVCAR-4; U-251; SNB-19; OVCAR-3; A498; NCI-H522; HOP-92; SF-295; HOP-62; OVCAR-8.
Assay in all cases: growth of human tumour cells (NCI), 48 h

Structures are written as SMILES.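 96-well plates; 48 h exposure; 5 concentrations. Endpoints by linear interpolation between flanking doses. Not reached: highest tested concentration assigned. GI50 marks 50% less growth.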 The source made the active and inactive calls. No stated cut-off is given here; in the data, active = GI50 up to about 1.1 µM and inactive = higher. Some results are limits rather than exact numbers.

For the molecule `COC12OC3(C4OC41)C(C(=O)O[C@H]3CO[Si](C)(C)C(C)(C)C)C2C(=O)Oc1ccccc1` (stereo not given in full), the GI50 in the test on HT-29 is > 100 µM (inactive); in the test with UACC-257, > 100 µM (inactive); in the test with CAKI-1, > 100 µM (inactive); in the test with UO-31, > 100 µM (inactive); with SR, > 100 µM (inactive); with HCT-15, more than 100 µM. The GI50 in the test on M14 is > 100 µM (inactive); in the test with EKVX, > 100 µM (inactive); with Malme-3M, 92 µM (inactive); in the test with SK-MEL-2 it was > 100 µM (inactive); in the test with OVCAR-4, > 100 µM (inactive); in the test with U-251, > 100 µM (inactive). The GI50 in the test on SNB-19, in the test on OVCAR-3, in the test on A498, with NCI-H522, with HOP-92 and with SF-295 was > 100 µM (inactive) each time. In addition, the GI50 with HOP-62 and with OVCAR-8 was > 100 µM (inactive) each time.

Consider `COCCN(C(=O)c1ccccc1)C1CCC(=O)c2[nH]c3ccccc3c21` (stereo not given), for which the GI50 in the test on HT-29 is 9.98 µM (inactive); in the test with UACC-257, > 46.9 µM (inactive); in the test on CAKI-1, 4.58 µM (inactive); with UO-31 it was 9.71 µM (inactive); in the test with SR, 3.2 µM (inactive); with HCT-15, 16.4 µM. The GI50 with M14 is 7.11 µM (inactive); in the test on EKVX, 10.7 µM (inactive); in the test with Malme-3M, 7.21 µM (inactive); in the test with SK-MEL-2, 5.38 µM (inactive); with OVCAR-4, 6.81 µM (inactive); in the test with U-251, 2.08 µM (inactive). The GI50 in the test with SNB-19 was 11.2 µM (inactive); in the test on OVCAR-3 it was 12.5 µM (inactive); in the test on A498, 19.1 µM (inactive); in the test with NCI-H522, 2.59 µM (inactive); in the test on HOP-92, 12.1 µM (inactive); with SF-295, > 41 µM (inactive). In addition, the GI50 with HOP-62 is 5.22 µM (inactive); in the test with OVCAR-8 it was 6.85 µM (inactive).

Regarding `O=C1OCC=C1COC1OC(CO)C(O)C(O)C1O` (stereo not given), the GI50 with HT-29 was > 100 µM (inactive); in the test on UACC-257 it was > 100 µM (inactive); in the test on CAKI-1, > 100 µM (inactive); in the test on UO-31, > 100 µM (inactive); in the test on SR, 36.2 µM (inactive); in the test with HCT-15, more than 100 µM. Also, the GI50 in the test with M14, in the test on EKVX, with Malme-3M, with SK-MEL-2, with OVCAR-4 and in the test with U-251 was > 100 µM (inactive) in each case. Further, the GI50 in the test on SNB-19 was > 100 µM (inactive); in the test on OVCAR-3, > 100 µM (inactive); in the test on A498, > 100 µM (inactive); with NCI-H522 it was 17.2 µM (inactive); in the test on HOP-92, > 100 µM (inactive); in the test on SF-295, > 100 µM (inactive). Also, the GI50 in the test with HOP-62 and in the test on OVCAR-8 was > 100 µM (inactive) throughout.

For `COc1ccc(NC(=S)c2ccc([N+](=O)[O-])o2)cc1`, the GI50 is 1.26 µM (inactive) in the test with HT-29; 2.7 µM (inactive) in the test with UACC-257; 3.44 µM (inactive) with CAKI-1; 2.03 µM (inactive) in the test with UO-31; 0.927 µM (active) with SR; 0.895 µM with HCT-15. The GI50 is 2.88 µM (inactive) in the test on M14; 2.92 µM (inactive) in the test with EKVX; 2.37 µM (inactive) with Malme-3M; 1.69 µM (inactive) in the test with SK-MEL-2; 1.55 µM (inactive) in the test on OVCAR-4; 0.885 µM (active) in the test on U-251. Also, the GI50 is 2.72 µM (inactive) in the test with SNB-19; 1.19 µM (inactive) in the test with OVCAR-3; 15.6 µM (inactive) with A498; 1.29 µM (inactive) in the test with NCI-H522; 7.8 µM (inactive) in the test on HOP-92; 3.6 µM (inactive) in the test on SF-295. Further, the GI50 with HOP-62 is 2.82 µM (inactive); in the test on OVCAR-8 it was 1.28 µM (inactive).

For the molecule `CC(=O)NC1=C(C)C(=O)c2c(nc3n2CCC3OC(=O)c2ccccc2)C1=O` (stereo not given), the GI50 in the test with HT-29 is 0.514 µM (active); in the test with UACC-257, 1.54 µM (inactive); with CAKI-1, 2.6 µM (inactive); with UO-31, 2.82 µM (inactive); with SR, 2.37 µM (inactive); with M14, 1.98 µM (inactive). For the same molecule, the GI50 with EKVX is 1.63 µM (inactive); in the test on Malme-3M, 1.64 µM (inactive); in the test on SK-MEL-2 it was 1.7 µM (inactive); with OVCAR-4, 1.52 µM (inactive); in the test on U-251, 1.89 µM (inactive); in the test with SNB-19, 2.69 µM (inactive). Moreover, the GI50 is 0.223 µM (active) with OVCAR-3; 12.7 µM (inactive) in the test on A498; 2.04 µM (inactive) in the test on NCI-H522; 1.9 µM (inactive) with HOP-92; 1.51 µM (inactive) in the test on SF-295; 2.34 µM (inactive) in the test on HOP-62. Also, in the test on OVCAR-8, the GI50 is 1.3 µM (inactive).

Consider `O=C1CCCCCCCCCCOC(=O)CCCCCCCCCCO1`, for which the GI50 was > 100 µM (inactive) in the test on HT-29; > 100 µM (inactive) in the test on UACC-257; > 100 µM (inactive) with CAKI-1; > 100 µM (inactive) with UO-31; 44.7 µM (inactive) with SR; more than 100 µM in the test with HCT-15. In addition, the GI50 with M14, in the test on EKVX, with Malme-3M, with SK-MEL-2, in the test on OVCAR-4 and in the test on U-251 was > 100 µM (inactive) throughout. For the same molecule, the GI50 in the test with SNB-19, in the test with OVCAR-3, in the test with A498, in the test with NCI-H522, with HOP-92 and in the test with SF-295 was > 100 µM (inactive) in each case. Also, the GI50 in the test with HOP-62 and with OVCAR-8 was > 100 µM (inactive) throughout.

Take `C[N+]1(C)CN(c2ccccc2)C2(CCN(CCCC(=O)c3cccs3)CC2)C1=O`: the GI50 in the test with HT-29 was 31.8 µM (inactive); in the test on UACC-257, 42.4 µM (inactive); with CAKI-1, > 100 µM (inactive); in the test with UO-31, 62.4 µM (inactive); with SR, 60 µM (inactive); in the test on HCT-15, 56.4 µM. Moreover, the GI50 with M14 is 23.2 µM (inactive); in the test on EKVX it was > 100 µM (inactive); in the test with Malme-3M, > 100 µM (inactive); in the test on SK-MEL-2 it was > 100 µM (inactive); with OVCAR-4, 96.8 µM (inactive); in the test with U-251 it was > 100 µM (inactive). The GI50 was > 100 µM (inactive) with SNB-19; 94.2 µM (inactive) with OVCAR-3; > 100 µM (inactive) with A498; > 100 µM (inactive) with NCI-H522; 35.7 µM (inactive) in the test with HOP-92; > 100 µM (inactive) in the test with SF-295. The GI50 in the test on HOP-62 is 33.4 µM (inactive); with OVCAR-8 it was > 100 µM (inactive).

Consider `N#C[C@H](c1ccccn1)c1nc2ccccc2nc1Cl`, for which the GI50 with HT-29 is > 100 µM (inactive); in the test on UACC-257, > 100 µM (inactive); with CAKI-1, > 100 µM (inactive); with UO-31, > 100 µM (inactive); in the test with SR it was > 100 µM (inactive); in the test with HCT-15, more than 100 µM. Also, the GI50 in the test with M14, with EKVX, with Malme-3M, in the test on SK-MEL-2, in the test with OVCAR-4 and in the test with U-251 was > 100 µM (inactive) in each case. In addition, the GI50 with SNB-19, with OVCAR-3, with A498, in the test with NCI-H522, in the test with HOP-92 and in the test on SF-295 was > 100 µM (inactive) in each case. The GI50 with HOP-62 and in the test with OVCAR-8 was > 100 µM (inactive) throughout.

As to `CC12CCC3C(CCC4CC(OC(=O)Cc5ccc(N(CCCl)CCCl)cc5)CCC43C)C1CCC(=O)N2` (stereo not given), the GI50 in the test with HT-29 is 16.4 µM (inactive); in the test with CAKI-1 it was 15.9 µM (inactive); with UO-31 it was 19.7 µM (inactive); in the test with SR it was 3.67 µM (inactive); with HCT-15, 14.7 µM; in the test with M14, 17.7 µM (inactive). Further, the GI50 in the test with EKVX is 16.4 µM (inactive); in the test with Malme-3M, 18.2 µM (inactive); with SK-MEL-2, 15.5 µM (inactive); with OVCAR-4, 15.9 µM (inactive); in the test with U-251, 15.1 µM (inactive); in the test with SNB-19, 18.3 µM (inactive). Moreover, the GI50 with OVCAR-3 was 18.2 µM (inactive); in the test on A498, 16.8 µM (inactive); in the test on NCI-H522, 14.7 µM (inactive); with HOP-92, 16.1 µM (inactive); with SF-295, 16.3 µM (inactive); with OVCAR-8 it was 15.8 µM (inactive).

Consider `Cc1cc(S(=O)(=O)NC2=NCc3nc4ccccc4n32)c(S)cc1Cl`, for which the GI50 in the test with UACC-257 was 24.2 µM (inactive); in the test with CAKI-1, 35.2 µM (inactive); in the test with UO-31, 26.4 µM (inactive); with SR it was 20.9 µM (inactive); with HCT-15 it was 24.7 µM; in the test on M14, 23.7 µM (inactive). Further, the GI50 was 29.3 µM (inactive) in the test with EKVX; 22.5 µM (inactive) in the test with Malme-3M; 13.5 µM (inactive) with SK-MEL-2; 29.4 µM (inactive) in the test with OVCAR-4; 33.5 µM (inactive) in the test on U-251; 32.3 µM (inactive) in the test on SNB-19. Further, the GI50 in the test with OVCAR-3 is 19.9 µM (inactive); in the test on A498, 26.9 µM (inactive); in the test on NCI-H522, 34.9 µM (inactive); with HOP-92, 18.7 µM (inactive); in the test with SF-295, 19.9 µM (inactive); in the test with OVCAR-8, 28.1 µM (inactive).
